We go through 8 molecules from ChEMBL document CHEMBL4342426, “Structure-activity relationship of 4-azaindole-2-piperidine derivatives as agents against Trypanosoma cruzi” (Bioorg Med Chem Lett, 2020).

The nature of one series: physchem. Particulars: buffer, pH 7.4.
Series [1] is described as follows: in vitro. Particulars: human, MRC5 SV2 cells.
Description: Cytotoxicity against human MRC5 SV2 cells assessed as reduction in cell viability incubated for 3 days by fluorimetry
A further series in a line: cells. As to conditions: Homo sapiens, MRC-5 SV2, 72 h.
Series [2] can be described thus: in vitro. As to conditions: mouse, liver microsomes. In general terms: Liver microsomes are a subcellular fraction often used to study metabolism.
Description: Metabolic stability in mouse liver microsomes assessed as fraction unbound at 0.5 uM incubated for 30 mins by LC-MS/MS analysis
Series [3] in a line: in vitro. Particulars: PAMPA. For orientation: In PAMPA a lipid-coated filter parts donor from acceptor wells.
Description: Effective permeability of compound by PAMPA assay
The next series concerns Trypanosoma brucei. The series can be described thus: microbe, parasite or virus in culture. Particulars: Squib 427, 72 h.
Series [4] is described as follows: in vitro. As to conditions: human, MRC5 SV2 cells. The source holds these as a separate data set.
Description: Selectivity index, ratio of IC50 for human MRC5 SV2 cells to IC50 for Trypanosoma cruzi Tulahuen CL2 amastigotes infected in human MRC5 SV2 cells
Series [5] can be described thus: in vitro. As to conditions: human, liver microsomes.
Description: Metabolic stability in human liver microsomes assessed as intrinsic clearance at 0.5 uM incubated for 30 mins by LC-MS/MS analysis
A further series deals with Macrophage. Put plainly: cells. Particulars: Mus musculus, 72 h.
Series [6] in a line: in vitro. Particulars: mouse, peritoneal macrophages.
Description: (§1) Cytotoxicity against mouse peritoneal Macrophage cells assessed as reduction in cell viability incubated for 3 days by fluorimetry
Series [7] has as its system Trypanosoma brucei rhodesiense. Put plainly: microbe, parasite or virus in culture. As to conditions: STIB900, 72 h.
Description: Antiprotozoal activity against Trypanosoma brucei rhodesiense STIB900 trypomastigotes incubated for 72 hrs by resazurin dye based fluorimetric analysis
The test system of the next series is Trypanosoma cruzi. Put plainly: microbe, parasite or virus in culture. As to conditions: Tulahuen CL2, MRC-5 SV2, 168 h.
The nature of series [8]: in vitro. Particulars: mouse, liver microsomes. The source holds these as a separate data set.
Description: Metabolic stability in mouse liver microsomes assessed as intrinsic clearance at 0.5 uM incubated for 30 mins by LC-MS/MS analysis
In the next series the test system is Leishmania infantum. The series can be described thus: microbe, parasite or virus in culture. As to conditions: for IC50: MHOM/MA(BE)/67/ITMAP263, 120 h; for IC90: MHOM/MA(BE)/67/ITMAP263, in Mus musculus, 120 h.

As usually defined, the logD is lipophilicity at a set pH, counting ionised and neutral species. Lower therefore signals a more hydrophilic compound. Usually IC90 stands for the concentration at which the effect reaches the 90% level. Read a low IC90 as greater potency. One may read the IC50 as the point on the concentration scale where inhibition reaches its midpoint. High values mean a need for much substance, low ones inhibition by little substance. A word on the fraction unbound: it is free concentration divided by total concentration. Broadly, the Papp is the rate of passage across a membrane or cell layer, normalised by area and donor concentration. The low end stands for poor permeation, the high end for ready permeation. A word on the CLint scaled: it is the capacity of the preparation to metabolise the compound, expressed as a volume cleared per time. Higher therefore signals faster metabolism. The term microsomal CLint denotes a measure of how fast metabolising enzymes remove a compound, apart from limits set by blood flow.

Description for Leishmania infantum: Antileishmanial activity against amastigote stage of Leishmania infantum MHOM/MA(BE)/67/ITMAP263 infected in mouse peritoneal macrophage assessed as parasite growth inhibition incubated for 5 days by Giemsa staining based assay
Description for Macrophage: as §1
Description for Trypanosoma cruzi: Antitrypanosomal activity against Trypanosoma cruzi Tulahuen CL2 amastigotes infected in human MRC5 SV2 cells incubated for 7 days by chlorophenol red beta-D-galactopyranoside substrate based spectrophotometric assay
Description for physchem: Lipophilicity, logD of compound at pH 7.4 by HPLC analysis

Take `O=C(c1cc(C(F)(F)F)no1)N1CCC(c2cc3ncccc3[nH]2)C1` (stereo not given): the logD in “physchem” was found to be 3.12. Further, the 90% effect concentration (IC90) at 72 h in “in vitro [1]” and in the series “in vitro [6]” was 64 µM each time. The IC50 in “cells” was 64 µM; with Trypanosoma brucei it was 64 µM; in the series on Macrophage, 64 µM; in series [7], 64 µM; in the series on Trypanosoma cruzi, 8.3 µM; in the series on Leishmania infantum, 64 µM. In addition, the fraction unbound at 0.5 h, 0.5 µM in the series “in vitro [2]” turned out to be 0.656. Moreover, the Papp in the series “in vitro [3]” amounted to 2.86 ×10⁻⁶ cm/s. In addition, the 90% effect concentration (IC90) (with Trypanosoma brucei; in [7]; in the series with Trypanosoma cruzi; in the series with Leishmania infantum) was 64 µM in each case. The selectivity ratio in “in vitro [4]” came out at 7.25. In addition, the CLint scaled at 0.5 h, 0.5 µM is 95.8 mL/min/kg in the series “in vitro [5]” and 5410 mL/min/kg in the series “in vitro [8]”. In addition, the microsomal CLint at 0.5 h, 0.5 µM in the series “in vitro [5]” was 58.2 µL/min/mg; in “in vitro [8]”, 1110 µL/min/mg.

The molecule `O=C(c1cc(C2CC2)no1)N1CCOC(c2cc3ncccc3[nH]2)C1` (stereo not given) registered a logD in “physchem” of 2.4. Moreover, the IC90 at 72 h in the series “in vitro [1]” and in the series “in vitro [6]” was 64 µM each time. For the same molecule, the IC50 in the series “cells” is 64 µM; in the series on Trypanosoma brucei, 64 µM; in the series on Macrophage, 64 µM; in [7] it was 64 µM; with Trypanosoma cruzi, 34.6 µM; with Leishmania infantum, 64 µM. Besides, the free fraction (fraction unbound) at 0.5 h, 0.5 µM in “in vitro [2]” is 0.896. Besides, the Papp in the series “in vitro [3]” was found to be 3.18 ×10⁻⁶ cm/s. Further, the IC90 in the series with Trypanosoma brucei worked out at 64 µM; in series [7], 64 µM; with Trypanosoma cruzi, 63.5 µM; in the series on Leishmania infantum, 64 µM. Also, the selectivity ratio in “in vitro [4]” was 1.85. Also, the results for the CLint scaled at 0.5 h, 0.5 µM in the series “in vitro [5]” and in “in vitro [8]” were less than 27.8 mL/min/kg and 279 mL/min/kg, respectively. For the same molecule, the microsomal CLint at 0.5 h, 0.5 µM in the series “in vitro [5]” is less than 23 µL/min/mg; in “in vitro [8]”, 78.3 µL/min/mg.

In the series “physchem”, `CCN(C(=O)CCc1nc2ncccc2[nH]1)c1ccccc1` had a logD of 2.23. In addition, the IC90 at 72 h in “in vitro [1]” and in the series “in vitro [6]” was 64 µM each time. The IC50 stood at 64 µM in the series “cells”; 64 µM with Trypanosoma brucei; 64 µM in the series with Macrophage; 64 µM in series [7]; 49.1 µM in the series with Trypanosoma cruzi; 64 µM in the series on Leishmania infantum. In the series “in vitro [2]”, the fraction unbound at 0.5 h, 0.5 µM was 0.767. In “in vitro [3]”, this molecule came in with an apparent permeability (Papp) of 9.64 ×10⁻⁶ cm/s. Besides, the IC90 (in the series with Trypanosoma brucei; in series [7]; in the series with Trypanosoma cruzi; with Leishmania infantum) was 64 µM throughout. Further, the selectivity ratio in “in vitro [4]” is 1.3. Also, the CLint scaled at 0.5 h, 0.5 µM in “in vitro [5]” is 49.3 mL/min/kg; in “in vitro [8]”, 426 mL/min/kg. Also, the microsomal CLint at 0.5 h, 0.5 µM in the series “in vitro [5]” was 35.1 µL/min/mg; in the series “in vitro [8]” it was 102 µL/min/mg.

As for `CN(CCc1cc2ncccc2[nH]1)C(=O)c1ccccc1`, the logD in the series “physchem” worked out at 1.88. For the same molecule, the IC90 at 72 h in the series “in vitro [1]” and in “in vitro [6]” was 64 µM throughout. Besides, the IC50 is 64 µM in “cells”; 64 µM with Trypanosoma brucei; 64 µM with Macrophage; 64 µM in series [7]; 36.2 µM in the series on Trypanosoma cruzi; 64 µM with Leishmania infantum. In the series “in vitro [2]”, the fraction unbound at 0.5 h, 0.5 µM is 0.83. In “in vitro [3]”, this molecule returned a Papp of 2.85 ×10⁻⁶ cm/s. For the same molecule, the concentration for an effect of 90% (IC90) (in the series with Trypanosoma brucei; in [7]; in the series with Trypanosoma cruzi; in the series with Leishmania infantum) was 64 µM in each case. Besides, the selectivity ratio in “in vitro [4]” worked out at 1.75. Besides, the intrinsic metabolic clearance (CLint scaled) at 0.5 h, 0.5 µM in “in vitro [5]” was less than 30.2 mL/min/kg; in “in vitro [8]”, 1470 mL/min/kg. Also, the values for the microsomal CLint at 0.5 h, 0.5 µM in “in vitro [5]” and in “in vitro [8]” were less than 23 µL/min/mg and 382 µL/min/mg, respectively.

As for `O=C(c1ccccc1)N1CCC(c2cc3ncccc3[nH]2)CC1`, the logD in the series “physchem” was found to be 2.68. The IC90 at 72 h in the series “in vitro [1]” and in “in vitro [6]” was 64 µM in each case. Besides, the IC50 worked out at 64 µM in the series “cells”; 64 µM with Trypanosoma brucei; 64 µM with Macrophage; 64 µM in [7]; 22.4 µM in the series on Trypanosoma cruzi; 64 µM with Leishmania infantum. In the series “in vitro [2]”, this molecule came in with a fraction unbound at 0.5 h, 0.5 µM of 0.738. This molecule also registered a Papp in “in vitro [3]” of 0.94 ×10⁻⁶ cm/s. Also, the IC90 amounted to 64 µM with Trypanosoma brucei, 64 µM in series [7], 56.1 µM with Trypanosoma cruzi and 64 µM with Leishmania infantum. The selectivity ratio in the series “in vitro [4]” is 2.86. The CLint scaled at 0.5 h, 0.5 µM was less than 33.3 mL/min/kg in “in vitro [5]” and 4520 mL/min/kg in the series “in vitro [8]”. Moreover, the values for the microsomal CLint at 0.5 h, 0.5 µM in the series “in vitro [5]” and in “in vitro [8]” were less than 23 µL/min/mg and 1040 µL/min/mg, respectively.

Consider `CC(C)(O)c1cc(C(=O)N2CCCC(c3cc4ncccc4[nH]3)C2)on1` (stereo not given), for which the logD in the series “physchem” was found to be 2.3. Moreover, the IC90 at 72 h in “in vitro [1]” and in “in vitro [6]” was 64 µM throughout. Also, the IC50 in “cells” amounted to 64 µM; in the series with Trypanosoma brucei, 64 µM; in the series on Macrophage, 64 µM; in [7], 64 µM; in the series with Trypanosoma cruzi, 33.6 µM; in the series on Leishmania infantum, 64 µM. The molecule also had a fraction unbound at 0.5 h, 0.5 µM in “in vitro [2]” of 0.661 to 0.839. Moreover, the apparent permeability coefficient (Papp) in the series “in vitro [3]” came to 0.45 ×10⁻⁶ cm/s. In addition, the IC90 (in the series on Trypanosoma brucei; in [7]; in the series on Trypanosoma cruzi; in the series on Leishmania infantum) was 64 µM each time. For the same molecule, in “in vitro [4]”, the selectivity ratio is 1.9. The CLint scaled at 0.5 h, 0.5 µM is less than 37.8 mL/min/kg in the series “in vitro [5]” and less than 88 mL/min/kg in “in vitro [8]”. Besides, the microsomal CLint at 0.5 h, 0.5 µM in “in vitro [5]” and in “in vitro [8]” was less than 23 µL/min/mg each time.

In turn, `COc1cc(C(=O)N2CCCC(c3cc4ncccc4[nH]3)C2)on1` (stereo not given) displayed a logD in the series “physchem” of 2.44. The 90% effect concentration (IC90) at 72 h in the series “in vitro [1]” and in “in vitro [6]” was 64 µM each time. Moreover, the IC50 in the series “cells” is 64 µM; with Trypanosoma brucei, 64 µM; in the series with Macrophage, 64 µM; in series [7] it was 64 µM; in the series on Trypanosoma cruzi, 8.1 µM; in the series with Leishmania infantum it was 64 µM. Also, in the series “in vitro [2]”, the fraction unbound at 0.5 h, 0.5 µM was found to be 0.688. The molecule further returned a Papp in the series “in vitro [3]” of 6.36 ×10⁻⁶ cm/s. The IC90 worked out at 64 µM in the series on Trypanosoma brucei, 64 µM in series [7], 15.2 µM in the series with Trypanosoma cruzi and 64 µM in the series on Leishmania infantum. In the series “in vitro [4]”, the selectivity ratio came to 7.9. The CLint scaled at 0.5 h, 0.5 µM is 57.8 mL/min/kg in the series “in vitro [5]” and 601 mL/min/kg in “in vitro [8]”. For the same molecule, the figures for the microsomal CLint at 0.5 h, 0.5 µM in “in vitro [5]” and in the series “in vitro [8]” were 36.9 µL/min/mg and 129 µL/min/mg, respectively.

For the molecule `O=C(c1cc(C(F)(F)F)no1)N1CCOC(c2cc3ncccc3[nH]2)C1` (stereo not given), the logD in “physchem” came out at 2.89. Moreover, the concentration for an effect of 90% (IC90) at 72 h in “in vitro [1]” and in the series “in vitro [6]” was 64 µM each time. For the same molecule, the IC50 in “cells” was 64 µM; in the series on Trypanosoma brucei it was 64 µM; with Macrophage it was 64 µM; in series [7] it was 64 µM; in the series with Trypanosoma cruzi it was 35.7 µM; in the series with Leishmania infantum it was 64 µM. The molecule also returned a fraction unbound at 0.5 h, 0.5 µM in the series “in vitro [2]” of 0.825. Besides, the Papp in the series “in vitro [3]” is 4.3 ×10⁻⁶ cm/s. Moreover, the IC90 (with Trypanosoma brucei; in [7]; in the series with Trypanosoma cruzi; with Leishmania infantum) was 64 µM each time. For the same molecule, the selectivity ratio in “in vitro [4]” turned out to be 1.8. For the same molecule, the CLint scaled at 0.5 h, 0.5 µM in “in vitro [5]” is 118 mL/min/kg; in “in vitro [8]”, 529 mL/min/kg. Besides, the intrinsic metabolic clearance (microsomal CLint) at 0.5 h, 0.5 µM in the series “in vitro [5]” came to 89.8 µL/min/mg; in the series “in vitro [8]”, 137 µL/min/mg.
